Source: patent publication US20140249135A1, “PIM KINASE INHIBITORS AND METHODS OF THEIR USE” (NOVARTIS AG, priority 2007, published 2014)
Read-outs that look alike come from different tables or passages of the source.

Assays:
Assay type in all cases: biochemical
Pim3 kinase = Pim3 kinase (Homo sapiens, UniProt Q86V86); assay: Pim3 ATP depletion assay
Pim2 kinase = Pim2 kinase (Homo sapiens, UniProt Q9P1W9); assay: Pim2 ATP depletion assay;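 note: Luciferase-based luminescent readout of ATP remaining after PIM2 phosphorylates a BAD peptide, final 5 nM enzyme, 4 µM ATP, 10 µM peptide, 2.5% DMSO, run to roughly half ATP consumption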
Pim2 kinase, sequence (Q9P1W9 whole entry): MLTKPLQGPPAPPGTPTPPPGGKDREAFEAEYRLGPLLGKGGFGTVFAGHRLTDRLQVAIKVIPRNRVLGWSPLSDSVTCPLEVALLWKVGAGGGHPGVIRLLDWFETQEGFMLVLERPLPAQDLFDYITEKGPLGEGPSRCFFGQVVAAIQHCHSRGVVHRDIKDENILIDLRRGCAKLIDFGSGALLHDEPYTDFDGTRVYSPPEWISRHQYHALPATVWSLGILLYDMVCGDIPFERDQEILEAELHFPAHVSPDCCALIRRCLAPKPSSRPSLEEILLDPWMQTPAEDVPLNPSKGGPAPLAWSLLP

Pim1 kinase = Pim1 kinase (Homo sapiens, UniProt P11309); assay: Pim1 ATP depletion assay; conditions: Pim1 ATP depletion assay;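 note: Luciferase-luciferin luminescence readout of residual ATP after PIM1 transfers phosphate to a peptide substrate, 40 µM ATP added, reaction run to roughly half ATP consumption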
Pim1 kinase, sequence (P11309 whole entry): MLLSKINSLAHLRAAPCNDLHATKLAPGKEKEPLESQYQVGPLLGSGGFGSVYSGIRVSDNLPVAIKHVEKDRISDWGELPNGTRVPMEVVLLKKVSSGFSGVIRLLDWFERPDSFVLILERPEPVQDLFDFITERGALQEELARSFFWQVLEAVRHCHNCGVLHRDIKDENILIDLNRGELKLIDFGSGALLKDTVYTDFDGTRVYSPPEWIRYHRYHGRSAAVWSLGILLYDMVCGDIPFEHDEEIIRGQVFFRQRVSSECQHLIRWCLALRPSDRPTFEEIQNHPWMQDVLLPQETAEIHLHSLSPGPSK

SMILES	IC50 (Pim3 kinase; read-out: IC50 (μM) PIM3) [µM]	IC50 (Pim2 kinase; read-out: IC50 (μM) PIM2) [µM]	IC50 (Pim1 kinase; read-out: IC50 (μM) PIM1) [µM]	IC50 (Pim3 kinase; read-out: PIM3 IC50) [µM]	IC50 (Pim2 kinase; read-out: PIM2 IC50) [µM]	IC50 (Pim1 kinase; read-out: PIM1 IC50) [µM]
Nc1ccc(C2CC3CCC2C3)nc1C(=O)Nc1cnccc1N1CCC[C@H](N)C1 (stereo in doubt) [Example 646, 3-Amino-6-bicyclo[2.2.1]hept-2-yl-pyridine-2-carboxylic acid (3-amino-3,4,5,6-tetrahydro-2H-[1,4′]bipyridinyl-3′-yl)-amide]	–	–	–	< 1	< 1	< 1
Nc1cnc(-c2c(F)cccc2F)nc1C(=O)Nc1cnccc1N1CC[C@@H](O)[C@H](N)C1 (stereo in doubt) [Example 663, 5-Amino-2-(2,6-difluoro-phenyl)-pyrimidine-4-carboxylic acid (3-amino-4-hydroxy-3,4,5,6-tetrahydro-2H-[1,4′]bipyridinyl-3′-yl)-amide]	–	–	–	< 1	< 1	< 1
CC1(O)CCCN(c2ccncc2NC(=O)c2nc(-c3ccccc3F)ccc2N)C1 (stereo not drawn) [Example 162, 3-Amino-6-(2-fluoro-phenyl)-pyridine-2-carboxylic acid (3-hydroxy-3-methyl-3,4,5,6-tetra-hydro-2H-[1,4′]bipyridinyl-3′-yl)-amide]	< 1	< 1	< 1	–	–	–
Nc1ccc(-c2c(F)cccc2F)nc1C(=O)Nc1cnccc1N1CCCCCCC1 [Example 167, 3-Amino-6-(2,6-difluoro-phenyl)-pyridine-2-carboxylic acid (4-azocan-1-yl-pyridin-3-yl)-amide]	< 1	1 to 10	< 1	–	–	–
Nc1ccc(-c2c(F)cccc2F)nc1C(=O)Nc1cnccc1N1CCCOCC1 [Example 168, 3-Amino-6-(2,6-difluoro-phenyl)-pyridine-2-carboxylic acid (4-[1,4]oxazepan-4-yl-pyridin-3-yl)-amide]	< 1	< 1	< 1	–	–	–
NC(=O)c1ccc(N2CCCCC2)c(NC(=O)c2nccnc2N)c1 [Example 170, 3-amino-N-(5-carbamoyl-2-(piperidin-1-yl)phenyl)pyrazine-2-carboxamide]	< 1	1 to 10	< 1	–	–	–
CC(=O)c1ccc(N2CCC(N)CC2)c(NC(=O)c2nccnc2N)c1 [Example 220, N-[5-acetyl-2-(4-aminopiperidin-1-yl)phenyl]-3-aminopyrazine-2-carboxamide]	< 1	10 to 25	< 1	–	–	–
CS(=O)(=O)c1ccc(N2CCC(N)CC2)c(NC(=O)c2nccnc2N)c1 [Example 234, 3-amino-N-[2-(4-aminopiperidin-1-yl)-5-(methylsulfonyl)phenyl]-pyrazine-2-carboxamide]	10 to 25	> 25	1 to 10	–	–	–
Nc1ccc(C2CCCCC2)nc1C(=O)Nc1cnccc1N1CCC[C@H](N)C1 [Example 636, 3-Amino-6-cyclohexyl-pyridine-2-carboxylic acid (3-amino-3,4,5,6-tetrahydro-2H-[1,4′]bipyridinyl-3′-yl)-amide]	–	–	–	< 1	–	< 1

The remaining lines, values ahead:

IC50 (Pim3 kinase; read-out: IC50 (μM) PIM3) [µM]	IC50 (Pim2 kinase; read-out: IC50 (μM) PIM2) [µM]	IC50 (Pim1 kinase; read-out: IC50 (μM) PIM1) [µM]	IC50 (Pim3 kinase; read-out: PIM3 IC50) [µM]	IC50 (Pim2 kinase; read-out: PIM2 IC50) [µM]	IC50 (Pim1 kinase; read-out: PIM1 IC50) [µM]	SMILES
< 1	< 1	< 1	–	–	–	Nc1cnc(-c2c(F)cccc2F)nc1C(=O)Nc1cnccc1N1CC[C@@H](F)[C@H](N)C1 (stereo in doubt) [Example 256, 5-Amino-2-(2,6-difluoro-phenyl)-pyrimidine-4-carboxylic acid (3-amino-4-fluoro-3,4,5,6-tetrahydro-2H-[1,4′]bipyridinyl-3′-yl)-amide]
< 1	< 1	< 1	–	–	–	CC(C)NC(=O)c1ccc(F)c(-c2ccc(N)c(C(=O)Nc3cnccc3N3C[C@@H](N)C[C@H](OC(=O)c4ccccc4)C3)n2)c1 (stereo in doubt) [Example 294, Benzoic acid 5-amino-3′-{[3-amino-6-(2-fluoro-5-isopropylcarbamoyl-phenyl)-pyridine-2-carbonyl]-amino}-3,4,5,6-tetrahydro-2H-[1,4′]bi-pyridinyl-3-yl ester]
–	–	–	< 1	< 1	< 1	Nc1cnc(-c2ccccc2F)nc1C(=O)Nc1cnccc1N1CC[C@@H](O)[C@H](N)C1 (stereo in doubt) [Example 662, 5-Amino-2-(2-fluoro-phenyl)-pyrimidine-4-carboxylic acid (3-amino-4-hydroxy-3,4,5,6-tetrahydro-2H-[1,4′]bi-pyridinyl-3′-yl)-amide]
–	–	–	< 1	< 1	< 1	CC(C)Oc1ccc(F)c(-c2ccc(N)c(C(=O)Nc3cnccc3N3CC[C@@H](O)[C@H](N)C3)n2)c1F (stereo in doubt) [Example 665, 3-Amino-6-(2,6-difluoro-3-isopropoxy-phenyl)-pyridine-2-carboxylic acid (3-amino-4-hydroxy-3,4,5,6-tetrahydro-2H-[1,4′]bipyridinyl-3′-yl)-amide]
–	–	–	< 1	< 1	< 1	CC(C)Oc1ccc(F)c(-c2ccc(N)c(C(=O)Nc3cnccc3N3CC[C@@H](N)[C@H](O)C3)n2)c1F (stereo in doubt) [Example 667, 3-Amino-6-(2,6-difluoro-3-isopropoxy-phenyl)-pyridine-2-carboxylic acid (4-amino-3-hydroxy-3,4,5,6-tetrahydro-2H-[1,4′]bipyridinyl-3′-yl)-amide]
–	–	–	< 1	< 1	< 1	Nc1cnc(-c2ccccc2)nc1C(=O)Nc1cnccc1N1CC[C@@H](O)[C@H](N)C1 (stereo in doubt) [Example 670, 5-Amino-2-phenyl-pyrimidine-4-carboxylic acid (3-amino-4-hydroxy-3,4,5,6-tetrahydro-2H-[1,4′]bipyridinyl-3′-yl)-amide]
< 1	< 1	< 1	–	–	–	Nc1ccc(-c2c(F)cccc2F)nc1C(=O)Nc1cnccc1N1CCCCCC1 [Example 169, 3-Amino-6-(2,6-difluoro-phenyl)-pyridine-2-carboxylic acid (4-azepan-1-yl-pyridin-3-yl)-amide]
> 25	> 25	> 25	–	–	–	NC1CCCN(c2ccncc2NC(=O)c2cnccn2)C1 (stereo not drawn) [Example 197, N-[4-(3-aminopiperidin-1-yl)-pyridin-3-yl]pyrazine-2-carboxamide]
> 25	> 25	> 25	–	–	–	Cc1cnc(C(=O)Nc2cnccc2N2CCCC(N)C2)cn1 (stereo not drawn) [Example 198, N-[4-(3-aminopiperidin-1-yl)pyridin-3-yl]-5-methyl-pyrazine-2-carboxamide]
> 25	> 25	10 to 25	–	–	–	Nc1ncccc1C(=O)Nc1cnccc1N1CCCC(N)C1 (stereo not drawn) [Example 200, 2-amino-N-[4-(3-aminopiperidin-1-yl)pyridin-3-yl]nicotinamide]
< 1	1 to 10	< 1	–	–	–	CC(=O)c1ccc(N2CCCC(N)C2)c(NC(=O)c2nccnc2N)c1 (stereo not drawn) [Example 221, N-[5-acetyl-2-(3-aminopiperidin-1-yl)phenyl]-3-aminopyrazine-2-carboxamide]
< 1	–	–	–	–	–	CC1CC(N)CN(c2ccncc2NC(=O)c2ccc(F)c(-c3ccccc3F)n2)C1 (stereo not drawn) [Example 287, 5-Fluoro-6-(2-fluoro-phenyl)-pyridine-2-carboxylic acid (3-amino-5-methyl-3,4,5,6-tetra-hydro-2H-[1,4′]bipyridinyl-3′-yl)-amide]
